What was measured:
mGAT4 = molecular target: T1, mGAT4 (Mus musculus, UniProt P31650); experiment: [3H]GABA uptake assay in HEK-293 cells stably expressing mGAT4; assay type: cell-based; settings: for IC50: [3H]GABA uptake, read-out: pIC50 ± SEM mGAT4 (converted); for remaining [3H]GABA uptake mGAT4: in the presence of 100 μM inhibitor
T1 construct: expressed in transfected cells; host or cells: HEK-293
T1 sequence (P31650 1-627): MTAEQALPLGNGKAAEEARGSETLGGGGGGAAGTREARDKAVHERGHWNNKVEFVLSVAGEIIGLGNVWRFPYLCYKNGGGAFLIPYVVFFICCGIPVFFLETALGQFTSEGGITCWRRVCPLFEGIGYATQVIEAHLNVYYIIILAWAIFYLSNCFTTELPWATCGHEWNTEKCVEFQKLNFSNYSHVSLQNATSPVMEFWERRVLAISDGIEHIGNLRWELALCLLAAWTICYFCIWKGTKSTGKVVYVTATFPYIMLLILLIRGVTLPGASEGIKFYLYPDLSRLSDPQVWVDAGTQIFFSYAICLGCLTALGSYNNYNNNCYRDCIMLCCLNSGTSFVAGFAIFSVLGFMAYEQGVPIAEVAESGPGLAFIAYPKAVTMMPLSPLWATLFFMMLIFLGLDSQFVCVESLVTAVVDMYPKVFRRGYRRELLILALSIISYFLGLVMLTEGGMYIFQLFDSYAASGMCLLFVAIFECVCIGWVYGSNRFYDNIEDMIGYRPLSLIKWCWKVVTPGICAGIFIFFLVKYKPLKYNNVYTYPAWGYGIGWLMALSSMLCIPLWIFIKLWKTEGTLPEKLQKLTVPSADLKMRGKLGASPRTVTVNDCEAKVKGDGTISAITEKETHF

mGAT2 = molecular target: T2, mGAT2 (Mus musculus, UniProt P31651); experiment: [3H]GABA uptake assay in HEK-293 cells stably expressing mGAT2; assay type: cell-based; settings: for IC50: [3H]GABA uptake, read-out: pIC50 ± SEM mGAT2 (converted); for remaining [3H]GABA uptake mGAT2: in the presence of 100 μM inhibitor
T2 construct: expressed in transfected cells; host or cells: HEK-293
T2 sequence (P31651 1-614): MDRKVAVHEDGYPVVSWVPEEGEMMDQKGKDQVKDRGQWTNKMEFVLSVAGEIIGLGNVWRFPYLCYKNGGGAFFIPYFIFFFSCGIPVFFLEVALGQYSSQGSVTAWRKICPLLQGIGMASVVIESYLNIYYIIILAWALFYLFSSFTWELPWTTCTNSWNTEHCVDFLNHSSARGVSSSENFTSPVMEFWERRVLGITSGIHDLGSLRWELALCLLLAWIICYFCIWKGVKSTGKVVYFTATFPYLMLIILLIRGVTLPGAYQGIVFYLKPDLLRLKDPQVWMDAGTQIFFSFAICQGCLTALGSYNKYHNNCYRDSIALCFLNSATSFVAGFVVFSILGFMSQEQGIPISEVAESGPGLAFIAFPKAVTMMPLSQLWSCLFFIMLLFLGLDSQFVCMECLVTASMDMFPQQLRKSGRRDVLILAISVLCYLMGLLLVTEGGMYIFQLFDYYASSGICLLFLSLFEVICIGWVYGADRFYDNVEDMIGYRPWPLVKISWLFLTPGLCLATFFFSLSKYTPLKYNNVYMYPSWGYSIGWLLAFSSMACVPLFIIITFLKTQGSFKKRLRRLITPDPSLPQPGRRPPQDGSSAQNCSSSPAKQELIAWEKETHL

mGAT3 = molecular target: T3, mGAT3 (Mus musculus, UniProt P31649); experiment: [3H]GABA uptake assay in HEK-293 cells stably expressing mGAT3; assay type: cell-based; settings: for IC50: [3H]GABA uptake, read-out: pIC50 ± SEM mGAT3 (converted); for remaining [3H]GABA uptake mGAT3: in the presence of 100 μM inhibitor
T3 construct: expressed in transfected cells; host or cells: HEK-293
T3 sequence (P31649 1-602): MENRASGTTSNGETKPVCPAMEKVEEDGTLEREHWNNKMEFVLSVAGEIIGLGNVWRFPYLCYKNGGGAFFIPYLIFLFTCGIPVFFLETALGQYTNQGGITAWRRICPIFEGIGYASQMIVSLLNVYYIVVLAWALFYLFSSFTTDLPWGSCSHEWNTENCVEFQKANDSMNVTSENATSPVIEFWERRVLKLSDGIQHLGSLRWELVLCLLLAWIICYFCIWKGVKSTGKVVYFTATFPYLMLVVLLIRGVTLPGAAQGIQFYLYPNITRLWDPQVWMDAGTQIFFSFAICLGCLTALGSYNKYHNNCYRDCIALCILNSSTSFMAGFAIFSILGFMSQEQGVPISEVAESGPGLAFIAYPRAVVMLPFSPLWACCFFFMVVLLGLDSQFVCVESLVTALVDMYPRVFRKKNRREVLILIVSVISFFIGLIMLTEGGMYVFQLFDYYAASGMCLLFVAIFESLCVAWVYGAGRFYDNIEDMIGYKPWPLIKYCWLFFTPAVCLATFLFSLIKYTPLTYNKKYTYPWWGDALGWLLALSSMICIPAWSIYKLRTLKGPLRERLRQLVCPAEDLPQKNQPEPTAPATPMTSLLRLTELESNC

mGAT1 [1] = molecular target: T4, mGAT1 (Mus musculus, UniProt P31648); experiment: [3H]GABA uptake assay in HEK-293 cells stably expressing mGAT1; assay type: cell-based; settings: for IC50: [3H]GABA uptake, read-out: pIC50 ± SEM mGAT1 (converted); for remaining [3H]GABA uptake mGAT1: in the presence of 100 μM inhibitor
T4 construct: expressed in transfected cells; host or cells: HEK-293

mGAT1 [2] = molecular target: T4, mGAT1; experiment: competitive MS binding assay with NO711 as unlabeled marker (LC-ESI-MS/MS); settings: in the presence of 100 μM inhibitor
Procedure, shortened: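 Competitive MS binding with unlabeled NO711 as marker, quantified by LC–ESI-MS/MS. Compounds screened at 100 μM for inhibition of marker binding.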

Structure (SMILES): O=C(NCc1ccccc1)C(CO)N1CCC(=C2c3ccccc3-c3ccccc32)CC1 (stereo not drawn) [Compound 57, N-Benzyl-2-[4-(9H-fluoren-9-ylidene)piperidin-1-yl]-3-hydroxypropanamide]
- IC50 (mGAT4): 36.3 µM
- IC50 (mGAT2): 17.8 µM
- IC50 (mGAT3): 69.2 µM
- IC50 (mGAT1 [1]): 24.5 µM
- remaining NO711 binding mGAT1 (mGAT1 [2]): 100 μM: 84%

Structure (SMILES): O=C(NCc1ccccc1)C(CO)N1CCC(=C2c3ccccc3CCc3ccccc32)CC1 (stereo not drawn) [Compound 58, N-Benzyl-2-(4-(10,11-dihydro-5H-dibenzo[a,d][7]annulen-5-ylidene)piperidin-1-yl)-3-hydroxypropanamide]
- IC50 (mGAT4): 23.4 µM
- IC50 (mGAT2): 22.4 µM
- IC50 (mGAT3): 20.9 µM
- IC50 (mGAT1 [1]): 35.5 µM
- remaining NO711 binding mGAT1 (mGAT1 [2]): 100 μM: 83%

Structure (SMILES): CN(CCON=C(c1ccccc1)c1ccccc1)C(CO)C(=O)NCc1ccccc1 (stereo not drawn) [Compound 59a, N-Benzyl-2-((2-(((diphenylmethylene)amino)oxy)ethyl)(methyl)amino)-3-hydroxypropanamide]
- IC50 (mGAT4): 26.9 µM
- IC50 (mGAT2): 22.9 µM
- IC50 (mGAT3): 58.9 µM
- IC50 (mGAT1 [1]): 22.9 µM
- remaining NO711 binding mGAT1 (mGAT1 [2]): 100 μM: 80%

Structure (SMILES): CN(CCON=C(c1ccccc1)c1ccccc1)C(CO)C(=O)NCc1ccccc1Cl (stereo not drawn) [Compound 59b]
- IC50 (mGAT4): 12.9 µM
- IC50 (mGAT2): 12.9 µM
- IC50 (mGAT3): 15.8 µM
- IC50 (mGAT1 [1]): 44.7 µM
- remaining NO711 binding mGAT1 (mGAT1 [2]): 100 μM: 92%

Structure (SMILES): CN(CCON=C(c1ccccc1)c1ccccc1)C(CO)C(=O)NCc1ccc(F)cc1 (stereo not drawn) [Compound 59c, 2-((2-(((Diphenylmethylene)amino)oxy)ethyl)(methyl)amino)-N-(4-fluorobenzyl)-3-hydroxypropanamide]
- IC50 (mGAT4): 16.6 µM
- IC50 (mGAT2): 17 µM
- IC50 (mGAT3): 19.5 µM
- IC50 (mGAT1 [1]): 26.3 µM
- remaining NO711 binding mGAT1 (mGAT1 [2]): 100 μM: 84%

Structure (SMILES): CCC(C(=O)NCc1ccccc1)N1CCC(=C(c2sccc2C)c2sccc2C)CC1 (stereo not drawn) [Compound 64a, N-Benzyl-2-(4-(bis(3-methylthiophen-2-yl)methylene)piperidin-1-yl)butanamide]
- remaining [3H]GABA uptake mGAT4 (mGAT4): 100 μM: 77%
- remaining [3H]GABA uptake mGAT2 (mGAT2): 100 μM: 108%
- remaining [3H]GABA uptake mGAT3 (mGAT3): 100 μM: 69%
- IC50 (mGAT1 [1]): 7.08 µM
- remaining NO711 binding mGAT1 (mGAT1 [2]): 100 μM: 81%

Structure (SMILES): CCC(C(=O)NCc1ccccc1Cl)N1CCC(=C(c2sccc2C)c2sccc2C)CC1 (stereo not drawn) [Compound 64b, 2-(4-(Bis(3-methylthiophen-2-yl)methylene)piperidin-1-yl)-N-(2-chlorobenzyl)butanamide]
- remaining [3H]GABA uptake mGAT4 (mGAT4): 100 μM: 64%
- remaining [3H]GABA uptake mGAT2 (mGAT2): 100 μM: 101%
- remaining [3H]GABA uptake mGAT3 (mGAT3): 100 μM: 61%
- remaining [3H]GABA uptake mGAT1 (mGAT1 [1]): 100 μM: 66%
- remaining NO711 binding mGAT1 (mGAT1 [2]): 100 μM: 108%

Structure (SMILES): CC(C(=O)NCc1ccccc1)N(C)CCON=C(c1ccccc1)c1ccccc1 (stereo not drawn) [Compound 65, N-Benzyl-2-((2-(((diphenylmethylene)amino)oxy)ethyl)(methyl)amino)propanamide]
- IC50 (mGAT4): 26.3 µM
- IC50 (mGAT2): 26.3 µM
- IC50 (mGAT3): 13.8 µM
- IC50 (mGAT1 [1]): 58.9 µM
- remaining NO711 binding mGAT1 (mGAT1 [2]): 100 μM: 104%

Structure (SMILES): CCC(C(=O)NCc1ccccc1)N(C)CCON=C(c1ccccc1)c1ccccc1 (stereo not drawn) [Compound 66a, N-Benzyl-2-((2-(((diphenylmethylene)amino)oxy)ethyl)(methyl)amino)butanamide]
- IC50 (mGAT4): 13.8 µM
- remaining [3H]GABA uptake mGAT2 (mGAT2): 100 μM: 55%
- IC50 (mGAT3): 16.6 µM
- remaining [3H]GABA uptake mGAT1 (mGAT1 [1]): 100 μM: 50%
- remaining NO711 binding mGAT1 (mGAT1 [2]): 100 μM: 104%

Structure (SMILES): CCC(C(=O)NCc1ccccc1Cl)N(C)CCON=C(c1ccccc1)c1ccccc1 (stereo not drawn) [Compound 66b, N-(2-Chlorobenzyl)-2-((2-(((diphenylmethylene)amino)oxy)ethyl)(methyl)amino)butanamide]
- remaining [3H]GABA uptake mGAT4 (mGAT4): 100 μM: 50%
- remaining [3H]GABA uptake mGAT2 (mGAT2): 100 μM: 59%
- IC50 (mGAT3): 45.7 µM
- remaining [3H]GABA uptake mGAT1 (mGAT1 [1]): 100 μM: 69%
- remaining NO711 binding mGAT1 (mGAT1 [2]): 100 μM: 107%

Structure (SMILES): Cc1ccsc1C(=CCCN(C)C(C)C(=O)NCc1ccccc1)c1sccc1C (stereo not drawn) [Compound 67, N-Benzyl-2-((4,4-bis(3-methylthiophen-2-yl)but-3-en-1-yl)(methyl)amino)propanamide]
- IC50 (mGAT4): 12 µM
- IC50 (mGAT2): 13.2 µM
- IC50 (mGAT3): 13.5 µM
- IC50 (mGAT1 [1]): 24.5 µM
- remaining NO711 binding mGAT1 (mGAT1 [2]): 100 μM: 83%

Structure (SMILES): CCC(C(=O)NCc1ccccc1)N(C)CCC=C(c1sccc1C)c1sccc1C (stereo not drawn) [Compound 68, N-Benzyl-2-((4,4-bis(3-methylthiophen-2-yl)but-3-en-1-yl)(methyl)amino)butanamide]
- IC50 (mGAT4): 12.9 µM
- IC50 (mGAT2): 39.8 µM
- IC50 (mGAT3): 30.9 µM
- IC50 (mGAT1 [1]): 26.9 µM
- remaining NO711 binding mGAT1 (mGAT1 [2]): 100 μM: 81%

Structure (SMILES): CCOC(=O)[C@H](C)N(C)CCC=C1c2ccccc2C=Cc2ccccc21 [Compound 71, Ethyl N-(3-(5H-Dibenzo[a,d][7]annulen-5-ylidene)propyl)-N-methylalaninate]
- IC50 (mGAT4): 63.1 µM
- remaining [3H]GABA uptake mGAT2 (mGAT2): 100 μM: 54%
- IC50 (mGAT3): 21.9 µM
- remaining [3H]GABA uptake mGAT1 (mGAT1 [1]): 100 μM: 52%
- remaining NO711 binding mGAT1 (mGAT1 [2]): 100 μM: 103%

Structure (SMILES): C[C@@H](C(=O)OCc1ccccc1)N(C)CCC=C1c2ccccc2C=Cc2ccccc21 [Compound 72, Benzyl N-(3-(5H-Dibenzo[a,d][7]annulen-5-ylidene)propyl)-N-methylalaninate]
- remaining [3H]GABA uptake mGAT4 (mGAT4): 100 μM: 97%
- remaining [3H]GABA uptake mGAT2 (mGAT2): 100 μM: 63%
- remaining [3H]GABA uptake mGAT3 (mGAT3): 100 μM: 86%
- remaining [3H]GABA uptake mGAT1 (mGAT1 [1]): 100 μM: 98%
- remaining NO711 binding mGAT1 (mGAT1 [2]): 100 μM: 109%

Structure (SMILES): CCOC(=O)C(C)N(C)CCC=C(c1sccc1C)c1sccc1C (stereo not drawn) [Compound 73, Ethyl 2-((4,4-Bis(3-methylthiophen-2-yl)but-3-en-1-yl)(methyl)amino)propanoate]
- IC50 (mGAT4): 52.5 µM
- remaining [3H]GABA uptake mGAT2 (mGAT2): 100 μM: 52%
- IC50 (mGAT3): 25.1 µM
- remaining [3H]GABA uptake mGAT1 (mGAT1 [1]): 100 μM: 55%
- remaining NO711 binding mGAT1 (mGAT1 [2]): 100 μM: 94%

Reference: article PMC8397297 (ACS Chemical Neuroscience, 2021)
